# Target: T1, GHS-R (Homo sapiens, UniProt Q92847)
# T1 construct: expressed in transfected cells; host or cells: COS-7 cells
# Experiment: GHS-R competition binding assay (Ki of GHS-R antagonizing compounds)
# Method in brief: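 COS-7 cells expressing GHS-R (1×10^5 cells/well) competed against 25 pM ^125I-ghrelin for 3 hours at 4° C in 50 mM HEPES pH 7.4 with 1 mM CaCl2, 5 mM MgCl2, 0.1% BSA, bacitracin. Nonspecific binding with […]; bound radioactivity counted after washing and lysis. Ki=IC50/(1+L/Kd).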
# T1 sequence (Q92847 whole entry, species assumed): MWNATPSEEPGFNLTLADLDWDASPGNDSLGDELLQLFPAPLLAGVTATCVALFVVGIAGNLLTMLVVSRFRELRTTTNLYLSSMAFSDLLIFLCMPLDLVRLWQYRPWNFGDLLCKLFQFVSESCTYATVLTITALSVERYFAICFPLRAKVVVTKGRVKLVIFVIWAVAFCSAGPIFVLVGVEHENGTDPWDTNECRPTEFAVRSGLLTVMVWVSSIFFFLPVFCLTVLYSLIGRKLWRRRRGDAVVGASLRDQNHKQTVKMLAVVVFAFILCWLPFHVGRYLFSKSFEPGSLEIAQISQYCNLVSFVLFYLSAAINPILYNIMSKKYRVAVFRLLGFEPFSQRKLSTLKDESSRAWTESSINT
row,Ki [nM],Compound
1,< 100,"CCN(CC)CCS(=O)(=O)N[C@H](CCc1ccccc1)C(=O)c1ccc(-c2ccccc2CNC(=O)NCCO)cc1 [Compound 201, (R)-2-(diethylamino)-N-(1-(2′-((3-(2-hydroxyethyl)ureido)methyl)biphenyl-4-yl)-1-oxo-4-phenylbutan-2-yl)ethanesulfonamide]"
2,100 to 1000,"C=C(C)C(=O)OCCNC(=O)NCc1ccccc1-c1ccc(C(=O)[C@@H](CCc2ccccc2)NS(=O)(=O)CCN(CC)CC)cc1 [Compound 202, (R)-2-(3-((4′-(2-(2-(diethylamino)ethylsulfonamido)-4-phenylbutanoyl)biphenyl-2-yl)methyl)ureido)ethyl methacrylate]"
3,100 to 1000,"CCN(CC)CCS(=O)(=O)N[C@H](CCc1ccccc1)C(=O)c1ccc(-c2ccccc2CN)cc1 [Compound 203, (R)-N-(1-(2′-(aminomethyl)biphenyl-4-yl)-1-oxo-4-phenylbutan-2-yl)-2-(diethylamino)ethanesulfonamide]"
4,< 100,"CCN(CC)CCS(=O)(=O)N[C@H](CCc1ccccc1)C(=O)c1ccc(-c2ccccc2CNC(C)=O)cc1 [Compound 204, (R)-N-((4′-(2-(2-(diethylamino)ethylsulfonamido)-4-phenylbutanoyl)biphenyl-2-yl)methyl)acetamide]"
5,< 100,"CCNC(=O)NCc1ccccc1-c1ccc(C(=O)[C@@H](CCc2ccccc2)NS(=O)(=O)CCN(CC)CC)cc1 [Compound 205, (R)-2-(diethylamino)-N-(1-(2′-((3-ethylureido)methyl)biphenyl-4-yl)-1-oxo-4-phenylbutan-2-yl)ethanesulfonamide]"
6,< 100,"CCN(CC)CCCS(=O)(=O)N[C@H](CCc1ccccc1)C(=O)NCc1ccc(-c2ccccc2CCNC(=O)NC)cc1 [Compound 206, (R)-2-(3-(diethylamino)propylsulfonamido)-N-((2′-(2-(3-methylureido)ethyl)biphenyl-4-yl)methyl)-4-phenylbutanamide]"
7,< 100,"CCN(CC)CCCS(=O)(=O)N[C@H](CCc1ccccc1)C(=O)NCc1ccc(-c2ccccc2CO)cc1 [Compound 207, (R)-2-(3-(diethylamino)propylsulfonamido)-N-((2′-(hydroxymethyl)biphenyl-4-yl)methyl)-4-phenylbutanamide]"
8,< 100,"CCN(CC)CCCS(=O)(=O)N[C@H](CCc1ccccc1)C(=O)NCc1ccc(-c2ccccc2COC(=O)NC)cc1 [Compound 208, (R)-Methyl-carbamic acid 4′-{[2-(3-diethylamino-propane-1-sulfonylamino)-4-phenyl-butyrylamino]-methyl}-biphenyl-2-ylmethyl ester]"
9,< 100,"CCN(CC)CCS(=O)(=O)N[C@H](CCc1ccccc1)C(=O)c1ccc(-c2ccccc2CNC(=O)NC)cc1 [Compound 209, (R)-2-(diethylamino)-N-(1-(2′-((3-methylureido)methyl)biphenyl-4-yl)-1-oxo-4-phenylbutan-2-yl)ethanesulfonamide]"
10,100 to 1000,"CCN(CC)CCCS(=O)(=O)N[C@@H](COCc1ccccc1)C(=O)N1CCC2(CC1)CN(S(C)(=O)=O)c1ccccc12 [Compound 210, (S)-N-(3-(benzyloxy)-1-(1-(methylsulfonyl)spiro[indoline-3,4′-piperidine]-1′-yl)-1-oxopropan-2-yl)-3-(diethylamino)propane-1-sulfonamide]"
11,< 100,"CCN(CC)CCCS(=O)(=O)N[C@@H](CCc1ccccc1)C(=O)N1CCC2(CC1)CN(S(C)(=O)=O)c1ccccc12 [Compound 211, (S)-3-(diethylamino)-N-(1-(1-(methylsulfonyl)spiro[indoline-3,4′-piperidine]-1′-yl)-1-oxo-4-phenylbutan-2-yl)propane-1-sulfonamide]"
12,< 100,"CCN(CC)CCS(=O)(=O)N[C@H](CCc1ccccc1)C(=O)c1ccc(-c2ccccc2CCNC(=O)NC)cc1 [Compound 212, (R)-2-(diethylamino)-N-(1-(2′-(2-(3-methylureido)ethyl)biphenyl-4-yl)-1-oxo-4-phenylbutan-2-yl)ethanesulfonamide]"

# The remaining lines, values behind:
row,Compound,Ki [nM]
1,"CCN(CC)CCCS(=O)(=O)N[C@H](CCc1ccccc1)C(=O)c1ccc(-c2ccccc2C(=O)O)cc1 [Compound 183, (R)-4′-(2-(3-(diethylamino)propylsulfonamido)-4-phenylbutanoyl)biphenyl-2-carboxylic acid]",100 to 1000
2,"CCOC(=O)c1ccccc1-c1ccc(C(=O)[C@@H](CCc2ccccc2)NS(=O)(=O)CCCN(CC)CC)cc1 [Compound 184, (R)-ethyl 4′-(2-(3-(diethylamino)propylsulfonamido)-4-phenylbutanoyl)biphenyl-2-carboxylate]",> 1000
3,"CCN(CC)CCCS(=O)(=O)N[C@H](CCc1ccccc1)C(=O)c1ccc(-c2ccccc2CCNC(=O)NC)cc1 [Compound 185, (R)-3-(diethylamino)-N-(1-(2′-(2-(3-methylureido)ethyl)biphenyl-4-yl)-1-oxo-4-phenylbutan-2-yl)propane-1-sulfonamide]",< 100
4,"CCN(CC)CCCS(=O)(=O)N[C@H](CCc1ccccc1)C(=O)c1ccc(-c2ccccc2C(=O)NC)cc1 [Compound 186, (R)-4′-(2-(3-(diethylamino)propylsulfonamido)-4-phenylbutanoyl)-N-methylbiphenyl-2-carboxamide]",100 to 1000
5,"CCN(CC)CCCS(=O)(=O)N[C@H](CCc1ccccc1)C(=O)NCc1ccc(-c2ccccc2CNC(=O)NC)cc1 [Compound 187, (R)-2-(3-(diethylamino)propylsulfonamido)-N-((2′-((3-methylureido)methyl)biphenyl-4-yl)methyl)-4-phenylbutanamide]",100 to 1000
6,"CCN(CC)CCCS(=O)(=O)N[C@H](CCc1ccccc1)C(=O)NCc1ccc(-c2ccccc2CNC(=O)NCCO)cc1 [Compound 188, (R)-2-(3-(diethylamino)propylsulfonamido)-N-((2′-((3-(2-hydroxyethyl)ureido)methyl)biphenyl-4-yl)methyl)-4-phenylbutanamide]",< 100
7,"CCN(CC)CCCS(=O)(=O)N[C@H](CCc1ccccc1)C(=O)NCc1ccc(-c2ccccc2C(N)=O)cc1 [Compound 189, (R)-4′-{[2-(3-Diethylamino-propane-1-sulfonylamino)-4-phenyl-butyrylamino]-methyl}-biphenyl-2-carboxylic acid amide]",< 100
8,"CCN(CC)CCCS(=O)(=O)N[C@H](CCc1ccccc1)C(=O)c1ccc(-c2ccccc2CNC(=O)OC(C)(C)C)cc1 [Compound 190, (R)-tert-butyl (4′-(2-(3-(diethylamino)propylsulfonamido)-4-phenylbutanoyl)biphenyl-2-yl)methylcarbamate]",100 to 1000
9,"CCN(CC)CCCS(=O)(=O)N[C@H](CCc1ccccc1)C(=O)c1ccc(-c2ccccc2CN)cc1 [Compound 191, (R)-N-(1-(2′-(aminomethyl)biphenyl-4-yl)-1-oxo-4-phenylbutan-2-yl)-3-(diethylamino)propane-1-sulfonamide]",100 to 1000
10,"CCN(CC)CCCS(=O)(=O)N[C@H](CCc1ccccc1)C(=O)c1ccc(-c2ccccc2CNC(C)=O)cc1 [Compound 192, (R)-N-((4′-(2-(3-(diethylamino)propylsulfonamido)-4-phenylbutanoyl)biphenyl-2-yl)methyl)acetamide]",< 100
11,"CCNC(=O)NCc1ccccc1-c1ccc(CNC(=O)[C@@H](CCc2ccccc2)NS(=O)(=O)CCCN(CC)CC)cc1 [Compound 193, (R)-2-(3-(diethylamino)propylsulfonamido)-N-((2′-((3-ethylureido)methyl)biphenyl-4-yl)methyl)-4-phenylbutanamide]",< 100
12,"CCN(CC)CCS(=O)(=O)N[C@H](CCc1ccccc1)C(=O)c1ccc(-c2ccccc2CNC(=O)OC(C)(C)C)cc1 [Compound 194, (R)-tert-butyl (4′-(2-(2-(diethylamino)ethylsulfonamido)-4-phenylbutanoyl)biphenyl-2-yl)methylcarbamate]",100 to 1000
13,"C=C(C)C(=O)OCCNC(=O)NCc1ccccc1-c1ccc(C(=O)[C@@H](CCc2ccccc2)NS(=O)(=O)CCCN(CC)CC)cc1 [Compound 195, (R)-2-(3-((4′-(2-(3-(diethylamino)propylsulfonamido)-4-phenylbutanoyl)biphenyl-2-yl)methyl)ureido)ethyl methacrylate]",< 100
14,"CCN(CC)CCCS(=O)(=O)N[C@H](CCc1ccccc1)C(=O)c1ccc(-c2ccccc2CNC(=O)NC)cc1 [Compound 196, (R)-3-(diethylamino)-N-(1-(2′-((3-methylureido)methyl)biphenyl-4-yl)-1-oxo-4-phenylbutan-2-yl)propane-1-sulfonamide]",< 100
15,"CCNC(=O)NCc1ccccc1-c1ccc(C(=O)[C@@H](CCc2ccccc2)NS(=O)(=O)CCCN(CC)CC)cc1 [Compound 197, (R)-3-(diethylamino)-N-(1-(2′-((3-ethylureido)methyl)biphenyl-4-yl)-1-oxo-4-phenylbutan-2-yl)propane-1-sulfonamide]",< 100
16,"CCN(CC)CCCS(=O)(=O)N[C@H](CCc1ccccc1)C(=O)c1ccc(-c2ccccc2CNC(=O)NCCO)cc1 [Compound 198, (R)-3-(diethylamino)-N-(1-(2′-((3-(2-hydroxyethyl)ureido)methyl)biphenyl-4-yl)-1-oxo-4-phenylbutan-2-yl)propane-1-sulfonamide]",< 100
17,"CCN(CC)CCS(=O)(=O)N[C@@H](COCc1ccccc1)C(=O)N1CCC2(CC1)CN(S(C)(=O)=O)c1ccccc12 [Compound 199, (S)-N-(3-(benzyloxy)-1-(1-(methylsulfonyl)spiro[indoline-3,4′-piperidine]-1′-yl)-1-oxopropan-2-yl)-2-(diethylamino)ethanesulfonamide]",< 100
18,"CCN(CC)CCCS(=O)(=O)N[C@H](CCc1ccccc1)C(=O)NCc1ccc(-c2ccccc2NC(=O)NC)cc1 [Compound 200, (R)-2-(3-(diethylamino)propylsulfonamido)-N-((2′-(3-methylureido)biphenyl-4-yl)methyl)-4-phenylbutanamide]",100 to 1000

# Source: patent US20050261332A1, “Sulfonamides and uses thereof” (priority 2004, published 2005)
